In article PMC11440465, “Detection of Sulfonamide Antibiotics Using an Elastic Hydrogel Microparticles-Based Optical Biosensor” (ACS Applied Materials & Interfaces, 2024):

Biological target: T1, Dihydropteroate synthase (DHPS) (Streptococcus pneumoniae, UniProt P05382)
T1 construct: gene sulA; dimer; immobilized on PEMA or POMA coated glass
Experiment: competitive hydrogel microparticle (SCP) binding assay, RICM contact area
Settings: DHPS immobilized on PEMA-coated glass; 0.1 M MOPS pH 6.0, 5 mM MgCl2, 600 uM pyrophosphate, room temperature; competes with SMX derivative on microparticles

T1 sequence (P05382 whole entry): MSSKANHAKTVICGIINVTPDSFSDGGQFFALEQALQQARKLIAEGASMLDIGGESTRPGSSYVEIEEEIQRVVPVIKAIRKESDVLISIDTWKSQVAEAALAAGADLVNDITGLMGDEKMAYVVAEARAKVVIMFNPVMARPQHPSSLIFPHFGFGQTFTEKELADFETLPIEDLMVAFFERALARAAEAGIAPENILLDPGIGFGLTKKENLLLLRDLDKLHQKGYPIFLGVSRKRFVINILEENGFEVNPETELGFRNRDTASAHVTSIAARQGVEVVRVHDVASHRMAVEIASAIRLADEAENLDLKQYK

% decrease of SCP contact area diameter at 1 mM: > 50%
SMILES: Cc1cc(NS(=O)(=O)c2ccc(N)cc2)no1 [SMX, sulfamethoxazole]
